Assay results taken from PubChem BioAssay AID342 (DTP/NCI, 2004).
Values joined by “and” are separate entries in the source; they are usually repeats but may differ in a detail not shown here. Equal values may be shown once.

Test system: Swiss mice, Sarcoma 180 sc, mean tumor weight T/C
Experiment: NCI In Vivo Anticancer Drug Screen. Data for tumor model Sarcoma 180 (subcutaneous) in Swiss mice
Conditions: endpoint: mean tumor weight, higher = larger tumour
Method in brief: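 Readout is the ratio of treated-group measurement to vehicle-control measurement (T/C), based on survival or tumor size in mice carrying transplanted tumors.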

SMILES: O=C(O)c1c(-c2ccccc2)[nH]c2cc(Cl)ccc2c1=O
- T/C (dose: 55.5 mg/kg/injection, schedule: Q01DX007 (ip), vehicle: carboxymethylcellulose (CMC)): 87 % of control
- T/C (dose: 83.0 mg/kg/injection, schedule: Q01DX007 (ip), vehicle: carboxymethylcellulose (CMC)): 51 % of control
- T/C (dose: 125.0 mg/kg/injection, schedule: Q01DX007 (ip), vehicle: carboxymethylcellulose (CMC)): 25 % of control

SMILES: O=C(O)CCCNC(=O)c1ccc([N+](=O)[O-])cc1
- T/C (dose: 125.0 mg/kg/injection, schedule: Q01DX007 (ip), vehicle: methylcellulose (MC)): 67 % of control
- T/C (dose: 250.0 mg/kg/injection, schedule: Q01DX007 (ip), vehicle: methylcellulose (MC)): 78 % of control

SMILES: CCCCOC(=O)C1(N)CCCC1
- T/C (dose: 60.0 mg/kg/injection, schedule: Q01DX007 (ip), vehicle: carboxymethylcellulose (CMC)): 72 % of control
- T/C (dose: 90.0 mg/kg/injection, schedule: Q01DX007 (ip), vehicle: carboxymethylcellulose (CMC)): 72 % of control
- T/C (dose: 135.0 mg/kg/injection, schedule: Q01DX007 (ip), vehicle: carboxymethylcellulose (CMC)): 33 % of control
- T/C (dose: 148.0 mg/kg/injection, schedule: Q01DX007 (ip), vehicle: saline): 54 % of control
- T/C (dose: 200.0 mg/kg/injection, schedule: Q01DX007 (ip), vehicle: carboxymethylcellulose (CMC)): 12 % of control
- T/C (dose: 202.0 mg/kg/injection, schedule: Q01DX007 (ip), vehicle: carboxymethylcellulose (CMC)): 33 % of control
- T/C (dose: 225.0 mg/kg/injection, schedule: Q01DX007 (ip), vehicle: saline): 33 % of control
- T/C (dose: 336.0 mg/kg/injection, schedule: Q01DX007 (ip), vehicle: saline): 11 % of control

SMILES: COC(=O)C1=CO[C@H](C)[C@@H]2CN3CCc4c([nH]c5ccccc45)[C@@H]3C[C@H]12
- T/C (dose: 12.5 mg/kg/injection, schedule: Q01DX007 (ip), vehicle: carboxymethylcellulose (CMC)): 110 % of control
- T/C (dose: 25.0 mg/kg/injection, schedule: Q01DX007 (ip), vehicle: carboxymethylcellulose (CMC)): 83 % of control
- T/C (dose: 50.0 mg/kg/injection, schedule: Q01DX007 (ip), vehicle: carboxymethylcellulose (CMC)): 84 % of control
- T/C (dose: 100.0 mg/kg/injection, schedule: Q01DX007 (ip), vehicle: carboxymethylcellulose (CMC)): 98 % of control

SMILES: CC(=O)OCC(=O)[C@@]1(O)CC[C@H]2[C@@H]3C[C@H](C)C4=CC(=O)CC[C@]4(C)[C@H]3[C@@H](O)C[C@@]21C
- T/C (dose: 3.0 mg/kg/injection, schedule: Q#A X014 (sc), vehicle: steriod suspending solution): 64 % of control
- T/C (dose: 6.25 mg/kg/injection, schedule: Q#A X014 (sc), vehicle: steriod suspending solution): 77 % of control
- T/C (dose: 12.5 mg/kg/injection, schedule: Q01DX007 (sc), vehicle: steriod suspending solution): 44 % of control
- T/C (dose: 12.5 mg/kg/injection, schedule: Q#A X014 (sc), vehicle: steriod suspending solution): 48 % of control
- T/C (dose: 25.0 mg/kg/injection, schedule: Q01DX007 (sc), vehicle: steriod suspending solution): 37 % of control
- T/C (dose: 25.0 mg/kg/injection, schedule: Q#A X014 (sc), vehicle: steriod suspending solution): 43 % of control
- T/C (dose: 50.0 mg/kg/injection, schedule: Q01DX007 (sc), vehicle: steriod suspending solution): 32 % of control
- T/C (dose: 50.0 mg/kg/injection, schedule: Q#A X014 (sc), vehicle: steriod suspending solution): 28 % of control
- T/C (dose: 100.0 mg/kg/injection, schedule: Q01DX007 (sc), vehicle: steriod suspending solution): 25 % of control
- T/C (dose: 200.0 mg/kg/injection, schedule: Q01DX007 (sc), vehicle: steriod suspending solution): 15 % of control

SMILES: Cc1cc(N(CCCl)CCCl)ccc1N=Nc1ccccc1C(=O)O
- T/C (dose: 5.3 mg/kg/injection, schedule: Q01DX007 (ip), vehicle: carboxymethylcellulose (CMC)): 33 % of control
- T/C (dose: 8.0 mg/kg/injection, schedule: Q01DX007 (ip), vehicle: carboxymethylcellulose (CMC)): 50 % of control
- T/C (dose: 12.0 mg/kg/injection, schedule: Q01DX007 (ip), vehicle: carboxymethylcellulose (CMC)): 61 % of control
- T/C (dose: 18.0 mg/kg/injection, schedule: Q01DX007 (ip), vehicle: carboxymethylcellulose (CMC)): 27 % of control

SMILES: COC(=O)C1=CO[C@@H](C)[C@@H]2Cn3ccc4c5ccccc5nc-4c3C[C@H]12
- T/C (dose: 10.0 mg/kg/injection, schedule: Q01DX007 (ip), vehicle: other): 113 % of control
- T/C (dose: 50.0 mg/kg/injection, schedule: Q01DX007 (ip), vehicle: other): 74 % of control

SMILES: CC(C)=CCC1=C(O)c2ccccc2C(=O)C1=O
- T/C (dose: 30.0 mg/kg/injection, schedule: Q01DX007 (ip), vehicle: water): 96 % of control
- T/C (dose: 50.0 mg/kg/injection, schedule: Q01DX007 (ip), vehicle: water): 97 % of control
- T/C (dose: 67.0 mg/kg/injection, schedule: Q01DX007 (ip), vehicle: other): 68 % of control
- T/C (dose: 100.0 mg/kg/injection, schedule: Q01DX007 (ip), vehicle: other): 90 % of control
- T/C (dose: 100.0 mg/kg/injection, schedule: Q01DX007 (ip), vehicle: water): 91 % of control and 107 % of control
- T/C (dose: 100.0 mg/kg/injection, schedule: Q#A X014 (oral), vehicle: other): 70 % of control
- T/C (dose: 150.0 mg/kg/injection, schedule: Q01DX007 (ip), vehicle: other): 73 % of control
- T/C (dose: 150.0 mg/kg/injection, schedule: Q#A X014 (oral), vehicle: other): 46 % of control
- T/C (dose: 200.0 mg/kg/injection, schedule: Q#A X014 (oral), vehicle: other): 42 % of control

SMILES: O=C(NC(CO)C(=O)O)C(Cl)Cl (configuration not stated)
- T/C (dose: 500.0 mg/kg/injection, schedule: Q#A X014 (ip), vehicle: methylcellulose (MC)): 47 % of control
- T/C (dose: 1000.0 mg/kg/injection, schedule: Q#A X014 (ip), vehicle: methylcellulose (MC)): 52 % of control
- T/C (dose: 1500.0 mg/kg/injection, schedule: Q#A X014 (ip), vehicle: methylcellulose (MC)): 60 % of control
- T/C (dose: 2000.0 mg/kg/injection, schedule: Q#A X014 (ip), vehicle: methylcellulose (MC)): 66 % of control
- T/C (dose: 2500.0 mg/kg/injection, schedule: Q#A X014 (ip), vehicle: methylcellulose (MC)): 68 % of control

SMILES: CO[C@@]12[C@H](COC(N)=O)C3=C(C(=O)C(C)=C(N)C3=O)N1C[C@@H]1N[C@@H]12
- T/C (dose: 0.12 mg/kg/injection, schedule: Q#A X014 (ip), vehicle: carboxymethylcellulose (CMC)): 113 % of control
- T/C (dose: 0.25 mg/kg/injection, schedule: Q#A X014 (ip), vehicle: carboxymethylcellulose (CMC)): 73 % of control
- T/C (dose: 0.5 mg/kg/injection, schedule: Q#A X014 (ip), vehicle: carboxymethylcellulose (CMC)): 57 % of control
- T/C (dose: 1.5 mg/kg/injection, schedule: Q#A X014 (ip), vehicle: carboxymethylcellulose (CMC)): 39 % of control
- T/C (dose: 2.0 mg/kg/injection, schedule: Q#A X014 (ip), vehicle: carboxymethylcellulose (CMC)): 17 % of control
- T/C (dose: 262.0 micrograms/kg/injection, schedule: Q01DX007 (ip), vehicle: carboxymethylcellulose (CMC)): 69 % of control
- T/C (dose: 525.0 micrograms/kg/injection, schedule: Q01DX007 (ip), vehicle: carboxymethylcellulose (CMC)): 98 % of control
- T/C (dose: 1050.0 micrograms/kg/injection, schedule: Q01DX007 (ip), vehicle: carboxymethylcellulose (CMC)): 84 % of control
- T/C (dose: 2100.0 micrograms/kg/injection, schedule: Q01DX007 (ip), vehicle: carboxymethylcellulose (CMC)): 49 % of control

SMILES: CS(C)=O
- T/C (dose: 1000.0 mg/kg/injection, schedule: Q01DX007 (ip), vehicle: other): 71 % of control
- T/C (dose: 1000.0 mg/kg/injection, schedule: Q#A X014 (ip), vehicle: other): 91 % of control
- T/C (dose: 1500.0 mg/kg/injection, schedule: Q01DX007 (ip), vehicle: other): 84 % of control
- T/C (dose: 1500.0 mg/kg/injection, schedule: Q#A X014 (ip), vehicle: other): 99 % of control

SMILES: NC(Cc1cc(I)c(Oc2ccc(O)c(I)c2)c(I)c1)C(=O)O (configuration not stated)
- T/C (dose: 0.1 micrograms/kg/injection, schedule: Q01DX007 (sc), vehicle: steriod suspending solution): 103 % of control
- T/C (dose: 1.0 micrograms/kg/injection, schedule: Q01DX007 (sc), vehicle: steriod suspending solution): 95 % of control
- T/C (dose: 10.0 micrograms/kg/injection, schedule: Q01DX007 (sc), vehicle: steriod suspending solution): 156 % of control

SMILES: CC1CN1P(=O)(Oc1ccccc1)N1CC1C (configuration not stated)
- T/C (dose: 27.5 mg/kg/injection, schedule: Q#A X014 (ip), vehicle: saline): 60 % of control and 67 % of control and 84 % of control
- T/C (dose: 62.5 mg/kg/injection, schedule: Q#A X014 (ip), vehicle: saline): 13 % of control and 20 % of control

SMILES: CC1CC(C)C(O)C(C(O)CC2CC(=O)NC(=O)C2)C1 (configuration not stated)
- T/C (dose: 40.0 mg/kg/injection, schedule: Q01DX007 (ip), vehicle: carboxymethylcellulose (CMC)): 84 % of control
- T/C (dose: 62.0 mg/kg/injection, schedule: Q01DX007 (ip), vehicle: carboxymethylcellulose (CMC)): 55 % of control
- T/C (dose: 93.0 mg/kg/injection, schedule: Q01DX007 (ip), vehicle: carboxymethylcellulose (CMC)): 44 % of control

SMILES: NNC(=O)NC(=O)NN
- T/C (dose: 9.5 mg/kg/injection, schedule: Q01DX007 (ip), vehicle: carboxymethylcellulose (CMC)): 91 % of control
- T/C (dose: 19.0 mg/kg/injection, schedule: Q01DX007 (ip), vehicle: carboxymethylcellulose (CMC)): 124 % of control
- T/C (dose: 38.0 mg/kg/injection, schedule: Q01DX007 (ip), vehicle: carboxymethylcellulose (CMC)): 111 % of control
- T/C (dose: 76.0 mg/kg/injection, schedule: Q01DX007 (ip), vehicle: carboxymethylcellulose (CMC)): 69 % of control
